{"source": "patent US20220120753A1", "about": "“METHOD FOR DETERMINING PROGNOSIS OF CANCER” (The University of Tokyo, priority 2018, published 2022)", "key": {"[1]": {"system": "ERα-positive/HER2-negative breast cancer", "assay": "Relapse-free survival of ERα-positive/HER2-negative breast cancer patients stratified by Fbxo22", "type": "in vivo, human", "conditions": "patient group that had undergone the TAM treatment", "excerpt": "FIGS. 9A and 9B show representative immunohistochemical staining images of a normal mammary gland (FIG. 9A), an Fbxo22-positive mammary gland of human breast cancer (FIG. 9B, left view), and an Fbxo22-negative mammary gland (FIG. 9B, right view). Scale bar: 20 μm. FIGS. 9C to 9F show Kaplan-Meier survival curves formed by stratifying ERα-positive/HER2-negative breast cancer (FIG. 9C), Luminal A (low Ki-67) breast cancer (FIG. 9D), lymph node metastasis-negative breast cancer (FIG. 9E), and tamoxifen-administered breast cancer (FIG. 9F) by the expression of Fbxo22. The P value and the hazard ratio were calculated according to a log-rank test.\nFormalin fixing, paraffin embedding, core needle aspiration biopsy cytology panels, and the clinical data thereof, which were derived from 163 cases of continuously treated T2 (diameter: 2 to 5 cm) ERα-positive/HER-2-negative primary breast cancers, were obtained from patients who underwent surgery at St. Marianna University School of Medicine Hospital from 2005 to 2009. […] A tissue section was incubated with anti-Fbxo22 antibody (GTX117774, GeneTex) used as a primary antibody, which was diluted to 1:200, and was then detected using an HRP-polymer-labeled secondary antibody (Histofine Simple Stain MAX PO (multi), Nichirei, Japan). […] The Fbxo22-positive cells were evaluated according to a blind test conducted by two pathologist. […]"}, "[2]": {"system": "ERα-positive breast cancer", "conditions": "cited from earlier work"}, "[3]": {"system": "ERα complex with KDM4B and SRC-3", "sequence (P03372 whole entry, one chain of several)": "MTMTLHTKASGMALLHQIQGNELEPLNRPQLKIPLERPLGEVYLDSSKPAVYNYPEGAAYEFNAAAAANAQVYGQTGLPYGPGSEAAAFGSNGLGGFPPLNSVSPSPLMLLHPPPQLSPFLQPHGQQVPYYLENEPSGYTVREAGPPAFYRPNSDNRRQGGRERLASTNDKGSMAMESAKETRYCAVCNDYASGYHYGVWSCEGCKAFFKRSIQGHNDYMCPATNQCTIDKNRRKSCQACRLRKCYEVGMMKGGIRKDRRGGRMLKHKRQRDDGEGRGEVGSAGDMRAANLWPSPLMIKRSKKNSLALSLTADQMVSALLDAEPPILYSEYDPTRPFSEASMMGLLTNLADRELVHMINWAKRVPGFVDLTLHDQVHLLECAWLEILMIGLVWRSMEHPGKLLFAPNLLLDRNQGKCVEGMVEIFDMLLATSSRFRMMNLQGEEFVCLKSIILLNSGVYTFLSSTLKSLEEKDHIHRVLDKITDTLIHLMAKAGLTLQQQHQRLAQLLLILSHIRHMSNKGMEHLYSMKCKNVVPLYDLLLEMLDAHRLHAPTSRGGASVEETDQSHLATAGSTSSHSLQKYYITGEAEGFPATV", "procedure": "(§1) Using total RNA derived from individual cells recovered over time, qPCR was carried out. […] Using total RNA prepared from the treated cells, qPCR was carried out. […] Using the nucleus extract, immunoprecipitation and immunoblotting were carried out.\n(§2) The obtained cells were immunostained with anti-FLAG antibodies. Representative images are shown.\n(§3) Total RNA was prepared from the cells treated with various drugs, and qPCR was carried out.\n(§4) Immunoprecipitation and immunoblotting were carried out according to the method described in Johmura et al., Molecular Cell 55: 73-84, 2014. The cells were dissolved in a TBSN buffer (20 mM Tris-Cl (pH 8.0), 150 mM NaCl, 0.5% NP-40, 5 mM EGTA, 1.5 mM EDTA, and 0.5 mM Na3VO4). The obtained cell lysate was centrifuged at 4° C. at 15,000×g for 20 minutes, and was then used in immunoprecipitation using an antibody.\nRegarding immunoprecipitation of ERα and KDM4B, a nuclear extract was prepared according to the method described in Hirokawa et al., Cancer Res. 74: 3880-3889, 2014. Cell pellets were suspended in buffer A (10 mM Hepes-KOH pH 7.9, 10 mM KCl, 1.5 mM MgCl2, 0.5 mM DTT, 0.5 mM PMSF, and protease inhibitor cocktail (Nakalai Tesque)) having five times the volume of the cell pellets, and the suspension was then incubated on ice for 5 minutes. Thereafter, the cells were centrifuged at 4° C. at 500×g for 5 minutes, and the obtained cell pellets were then suspended in buffer A having two times the volume of the cell pellets for homogenization. The homogenized cell suspension was centrifuged at 4° C. at 4,000×g for 5 minutes, and a cell nucleus was recovered in a precipitate. To the recovered nucleus, an equal amount of buffer B (20 mM Hepes-KOH pH 7.9, 600 mM KCl, 1.5 mM MgCl2, 0.2 mM EDTA, 25% glycerol, 0.5 mM DTT, 0.5 mM PMSF, and protease inhibitor cocktail) was added and suspended, and the obtained mixture was then blended at 4° C. for 30 minutes, using a rotator. The nuclear extract was centrifuged at 4° C. at 16,000×g for 15 minutes, and was then recovered in a supernatant. The nuclear extract was dialyzed against buffer C (20 mM Hepes-KOH pH 7.9, 100 mM KCl, 0.2 mM EDTA, 20% glycerol, 0.5 mM DTT, and 0.5 mM PMSF). After completion of the dialysis, the nuclear extract was centrifuged at 4° C. at 16,000×g for 30 minutes, and the remaining precipitate was then eliminated.\nA protein (20 to 50 μg) was separated from the total cell lysate by SDS-PAGE, and was then transferred into a PVDF membrane (Millipore), which was then used in immunoblotting using various types of antibodies."}, "ERα [4]": {"system": "ERα", "assay": "ChIP-Seq analysis of ERα binding in MCF-7 cells", "type": "cell-based, human", "conditions": "for ERα accumulation peaks detected: 2 hours, E2 line = E2 (10 nM), 4-OHT line = E2+4-OHT", "excerpt": "Thereafter, DNA was extracted using a DNA purification column."}, "ERα [5]": {"system": "ERα", "conditions": "U2OS cells, Fbxo22 not expressed", "procedure": "as §2\n(§5) Quantitative RT-PCR was carried out according to the method described in Johmura et al., Molecular Cell 55: 73-84, 2014. Total RNA was extracted using ISOGEN II (Wako), and using this as a template, cDNA was synthesized using SuperScript II cDNA synthesis kit (Invitrogen). PCR amplification was carried out in a 96-well optical reaction plate, using Power SYBR Green PCR Master Mix (Applied Biosystems). The relative expression ratio of individual genes was normalized with respect to the expression level of GAPDH."}, "[6]": {"system": "ERα-dependent transcription", "assay": "qPCR of ERα target gene transcripts (EBAG9, GREB1) in MCF-7 cells", "type": "cell-based, human", "procedure": "as §1\nUsing total RNA prepared from the cells over time, qPCR was carried out.\nas §3\nThe cells were washed with PBS three times, and were then cultured in phenol red-non-added DMEM (supplemented with 5% charcoal-stripped FBS) for 72 hours.\nas §5"}, "T47D cells": {"system": "T47D cells", "assay": "Colony formation assay, T47D cells", "type": "cell-based, human", "conditions": "Fbxo22-knocked-out T47D cells in the presence of E2 and 4-OHT, compared with control cells", "procedure": "The cells (5×10^2) were seeded on a 6-well plate, and were then cultured for 2 weeks. Thereafter, colonies were immobilized with methanol/acetic acid (1:1) for 15 minutes, and were then stained in 20% methanol/PBS containing 0.4% trypan blue (Sigma) for 15 minutes, followed by counting."}, "[7]": {"system": "CFP-LacER, YFP-SRC-1 and FLAG-KDM4B foci", "sequence (P03372 311-547 limits assumed)": "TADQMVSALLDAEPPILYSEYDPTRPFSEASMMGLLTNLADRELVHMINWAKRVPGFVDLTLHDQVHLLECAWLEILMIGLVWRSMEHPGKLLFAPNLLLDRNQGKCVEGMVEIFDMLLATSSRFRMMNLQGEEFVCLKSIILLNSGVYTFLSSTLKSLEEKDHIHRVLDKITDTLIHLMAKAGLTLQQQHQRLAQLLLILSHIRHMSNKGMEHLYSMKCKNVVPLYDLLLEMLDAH", "conditions": "in the presence of E2 and 4-OHT", "procedure": "as §2\nU205-LacO-I-SceI-TetO cells were cultured in a glass bottom dish (Iwaki) on the stage of BZ-9000 (Keyence) equipped with an environmental chamber (Keyence). The microscopic image was analyzed with BZ-9000 software.\nIn order to immobilize ERα on a Lac operator array stably incorporated into living cells, using a CFP-tagged lac receptor-ERα chimeric protein (CFP-LacER), accumulation of YFP-SRC-1 and KDM4B in an ERα-immobilized position was examined."}, "[8]": {"system": "KDM4B forming a complex with ERα", "sequence (P03372 whole entry, one chain of several)": "as the sequence (P03372 whole entry, one chain of several) above"}, "[9]": {"system": "FLAG-Fbxo22 binding to ERα", "sequence (P03372 whole entry)": "as the sequence (P03372 whole entry, one chain of several) above", "procedure": "as §4"}, "MCF-7 cells": {"system": "MCF-7 cells", "assay": "Colony formation assay, MCF-7 cells", "type": "cell-based, human", "procedure": "Representative colony images (upper view) and the results of the assay are shown. […] Ki-67-positive and cleaved caspase 3-positive cells were counted, and the counted numbers were then normalized with respect to the cell nucleus in each section. *p<0.05, ***p<0.05. The cells (5×10^2) were seeded on a 6-well plate, and were then cultured for 2 weeks. Thereafter, colonies were immobilized with methanol/acetic acid (1:1) for 15 minutes, and were then stained in 20% methanol/PBS containing 0.4% trypan blue (Sigma) for 15 minutes, followed by counting."}, "T47D breast cancer cells": {"system": "T47D breast cancer cells", "assay": "T47D cells transplanted into the mammary gland fat pad of NOD/Scid mice", "type": "in vivo, mouse", "conditions": "NOD/Scid mice with Fbxo22-knocked-out T47D cells treated with 4-OHT pellets, compared with mice with control cells", "procedure": "Representative colony images (upper view) and the results of the assay are shown. […] Ki-67-positive and cleaved caspase 3-positive cells were counted, and the counted numbers were then normalized with respect to the cell nucleus in each section. *p<0.05, ***p<0.05. […] Thereafter, the cells were treated with trypsin, were then suspended in PBS, and were then mixed with Matrigel (CORNING 354230) at a mixing ratio of 1:1. […] Six weeks later, the mice were euthanized, the tumor was then excised, and the size of the tumor was then measured. Thereafter, the tumor was fixed with formalin and was then embedded in paraffin, and an HE stain slide glass was produced. The size of a tumor was evaluated as follows: V=(length×width×height×0.5326) mm^3. All of the mice were fed under a specific pathogen-free environment, and were treated in accordance with Animal Experiment Guidelines, Graduate School of Medicine and Faculty of Medicine, The University of Tokyo."}}, "note": "Where two headings read alike, the source gives them in different places.", "data": [{"compound": "CC/C(=C(\\c1ccccc1)c1ccc(OCCN(C)C)cc1)c1ccccc1", "note": "[TAM, Tamoxifen]", "values": [{"measurement": "prognosis (relapse-free survival) of Fbxo22-negative breast cancer", "setting": "[1]", "result": "extremely poor prognosis"}, {"measurement": "reduction of annual breast cancer mortality rate", "setting": "[2]; TAM therapy", "result": "approximately 30%"}, {"measurement": "early breast cancer patients with a recurrence within 15 years", "setting": "[2]; patients treated by TAM", "result": "approximately 25%"}]}, {"compound": "4-hydroxytamoxifen [4-OHT]", "values": [{"measurement": "cofactor dynamics (KDM4B/SRC-3 dissociation, N-CoR interaction with ERα)", "setting": "[3]; Fbxo22-depleted MCF-7 cells, E2 then 4-OHT", "result": "not observed"}, {"measurement": "complex of ERα with KDM4B and SRC-3", "setting": "[3]; control MCF-7 cells stimulated by E2, then 4-OHT", "result": "dissociated"}, {"measurement": "ERα accumulation peaks detected", "setting": "ERα [4]; Fbxo22-depleted MCF-7 cells", "result": "19,924"}, {"measurement": "interaction of ERα with a target region", "setting": "ERα [4]; MCF-7 cells, E2+4-OHT versus E2", "result": "does not affect"}, {"measurement": "accumulation of ERα in the promoter regions of GREB1 and IGFBP4 genes", "setting": "ERα [4]; control and Fbxo22-depleted MCF-7 cells, E2 line = E2, 4-OHT line = E2+4-OHT", "result": "maintained"}, {"measurement": "ERα accumulation peaks detected", "setting": "ERα [4]; wild-type/control MCF-7 cells", "result": "26,751"}, {"measurement": "antagonistic activity of 4-OHT", "setting": "ERα [5]; wild-type ERα expressed, stimulated by E2", "result": "suppressed"}, {"measurement": "antagonistic activity of 4-OHT", "setting": "ERα [5]; Δ44 ERα expressed", "result": "observed"}, {"measurement": "antagonistic activity of 4-OHT on transcription of EBAG9 and GREB1", "setting": "[6]; Fbxo22-depleted MCF-7 cells", "result": "suppressed"}, {"measurement": "time after addition of 4-OHT at which transcript levels of GREB1 and EBAG1 became minimum", "setting": "[6]; MCF-7, E2-depleted 72 h, E2 10 nM, 4-OHT 100 nM added 6 hours after E2", "result": "Six"}, {"measurement": "transcription of EBAG9 and GREB1", "setting": "[6]; control MCF-7 cells stimulated by E2, treated with 4-OHT", "result": "strongly suppressed"}, {"measurement": "colony formation", "setting": "T47D cells", "result": "significantly promoted"}, {"measurement": "colocalization of FLAG-KDM4B with CFP-LacER and YFP-SRC-1", "setting": "[7]; Fbxo22-depleted cells", "result": "colocalized"}, {"measurement": "colocalization of FLAG-KDM4B with CFP-LacER and YFP-SRC-1", "setting": "[7]; control cells", "result": "not observed"}, {"measurement": "ubiquitination of KDM4B forming a complex with ERα", "setting": "[8]", "result": "recovered"}, {"measurement": "FLAG-Fbxo22 binding to ERα", "setting": "[9]", "result": "recovered (increased)"}, {"measurement": "proliferation-suppressing effect of 4-OHT", "setting": "MCF-7 cells; Fbxo22-depleted MCF-7 cells", "result": "reduced"}, {"measurement": "proliferation-suppressing effect of 4-OHT", "setting": "MCF-7 cells; Fbxo22-depleted MCF-7 cells with Fbxo22 re-expressed (FLAG-Fbxo22)", "result": "recovered"}, {"measurement": "proliferation (colony formation) in the presence of E2", "setting": "MCF-7 cells; control MCF-7 cells, E2 10 nM, 4-OHT 100 nM", "result": "completely suppressed"}, {"measurement": "tumor growth (tumor volume)", "setting": "T47D breast cancer cells", "result": "clear increase"}]}]}
